# Where two headings read alike, the source gives them in different places.
# Key:
# [1] = test system: human PC3 lung tumors; experiment: Lung tumors established by direct injection of PC3 cells into the lungs of immunodeficient mice; assay type: in vivo; settings: doxorubicin three doses of 10 mg/kg, suramin three doses of 20 mg/kg, day 12
# Protocol: Animal care was in accordance with the guidelines at the Ohio State University. Several human tumor models were used, including (a) lung metastases derived from intravenous injection of human PC3-LN tumor cells, (b) lung tumors derived from direct injection of human PC3 cells in lungs, and (c) subcutaneously implanted PC3 tumors. Four studies were performed. In all studies, drug treatment was administered intravenously via a tail vein, after the tumor was established. The first and second studies used the intravenous PC3-LN lung metastasis model. Briefly, human PC3-LN cells ([…] in 0.1 ml physiologic saline) were injected intravenously, via a tail vein, into immunodeficient mice. […] Treatment was given twice weekly for three weeks. […] The lung surface area (counted as number of pixel) occupied by the tumor was calculated as a fraction of the total lung area, using Adobe PhotoShop. The number of tumor cells in residual tumors and the fraction of apoptotic cells in each tumor were also determined microscopically. […] This was determined by counting the number of non-apoptotic tumor cells in randomly selected microscopic fields at 400× magnification. […] In the case of combination therapy where fewer than 5 tumor nodules remained per animal, all residual cells (between 20 to 600 cells per animal) were counted.
# [2] = test system: subcutaneous PC3 tumors; settings: suramin 10 mg/kg, doxorubicin 5 mg/kg, twice weekly for 3 weeks
# Protocol: Briefly, PC3 cells (5×10^6 cells) were injected subcutaneously.
# [3] = test system: rat lymph node metastases, histocultures; experiment: Drug effect in histocultures of rat lymph node metastases (inhibition of 3H-thymidine incorporation); assay type: cell-based
# [4] = test system: rat MAT-LyLu tumor cells; experiment: Intracellular drug accumulation with or without CM or r-bFGF; settings: unchanged with or without CM or r-bFGF; 10 nM paclitaxel, 100 nM doxorubicin, 500 nM 5-fluorouracil
# [5] = test system: human PC3-LN lung metastases
# Protocol: Animal care was in accordance with the guidelines at the Ohio State University. Several human tumor models were used, including (a) lung metastases derived from intravenous injection of human PC3-LN tumor cells, (b) lung tumors derived from direct injection of human PC3 cells in lungs, and (c) subcutaneously implanted PC3 tumors. Four studies were performed. In all studies, drug treatment was administered intravenously via a tail vein, after the tumor was established. The first and second studies used the intravenous PC3-LN lung metastasis model. Briefly, human PC3-LN cells ([…] in 0.1 ml physiologic saline) were injected intravenously, via a tail vein, into immunodeficient mice. […] Treatment was given twice weekly for three weeks. […] Three days after completion of drug treatments, animals were euthanized and their lungs removed, fixed in Bouin's solution to visualize tumor nodules, and then processed for histologic evaluation. […] The lung surface area (counted as number of pixel) occupied by the tumor was calculated as a fraction of the total lung area, using Adobe PhotoShop. The number of tumor cells in residual tumors and the fraction of apoptotic cells in each tumor were also determined microscopically. Because apoptotic cells disappear over time, a second measure of the extent of apoptosis was the density of non-apoptotic cells in the residual tumors. This was determined by counting the number of non-apoptotic tumor cells in randomly selected microscopic fields at 400× magnification. […] In the case of combination therapy where fewer than 5 tumor nodules remained per animal, all residual cells (between 20 to 600 cells per animal) were counted.
# [6] = test system: Human prostate PC3 tumor cells; experiment: Intracellular drug accumulation with or without CM or r-bFGF; settings: unchanged with or without CM or r-bFGF; 1 nM paclitaxel, 50 nM doxorubicin, 500 nM 5-fluorouracil; 4 hours
# [7] = test system: bladder, breast, head and neck, ovarian and prostate tumors from human patients; experiment: Paclitaxel in histocultures of tumors obtained from human patients; assay type: cell-based; settings: 96 tumors; bladder 2 hours, remaining tumors 96 hours
# Protocol: The third study examined the relationship between the levels of aFGF and bFGF in human tumors and tumor sensitivity to anticancer agents. This study was performed using 96 tumors obtained from human patients, including include bladder, breast, head and neck, ovarian and prostate tumors. Paclitaxel was used as the model drug. […] The drug-induced antiproliferation was measured by inhibition of DNA precursor incorporation, and apoptosis was measured by morphological changes and by labeling of nicked DNA. aFGF, bFGF and other proteins known to contribute to drug resistance (i.e. the mdr1 p-glycoprotein, p53 and bcl-2) were detected by immunohistochemical staining.
# [8] = doxorubicin study: suramin 10 mg/kg, doxorubicin 5 mg/kg, intravenous twice weekly for three weeks
# [9] = suramin 10 mg/kg, doxorubicin 5 mg/kg, intravenous twice weekly for three weeks
# [10] = paclitaxel study: suramin 10 mg/kg, paclitaxel 15 mg/kg, intravenous twice weekly for three weeks
Structure (SMILES),tumor-free animals [1] [%],effect on tumor growth [2],"IC50 ([3]; Histocultures, Lymph node, 96 hours, read-out: Concentration producing 50% inhibition) [nM]",plateau intracellular concentration [4] [pmol/10^6 cells],reduction of tumor size ([5]; doxorubicin 5 mg/kg alone) [%],"% Apoptotic cells per tumor [5, 8] [%]","Density of nonapoptotic cells in residual tumors, cells/field [5, 8] [cells/field]","% Lung surface area occupied by tumor [5, 9] [%]","% Tumor-free animals [5, 9] [%]",plateau intracellular concentration [6] [pmol/10^6 cells],"IC30 (concentration producing 30% inhibition) ([3]; 24 h, read-out: Concentration producing 50% inhibition (data shown are the concentrations that produced 30% inhibition)) [nM]",tumors in which antiproliferation was produced [7] [%],tumors in which apoptosis was induced [7] [%],increase of the fraction of apoptotic cells ([5]; paclitaxel 15 mg/kg alone) [fold],reduction of the density of nonapoptotic cells ([5]; paclitaxel 15 mg/kg alone) [%],"% Apoptotic cells per tumor [5, 10] [%]","Density of nonapoptotic cells in residual tumors, cells/field [5, 10] [cells/field]"
COc1cccc2c1C(=O)c1c(O)c3c(c(O)c1C2=O)C[C@@](O)(C(=O)CO)C[C@@H]3O[C@H]1C[C@H](N)[C@H](O)[C@H](C)O1 [Doxorubicin],25,reduced the tumor growth but did not cause tumor regression,165 ± 66,80,~80,29 ± 16,77 ± 17,2 ± 1,0,40,,,,,,,
CC(=O)O[C@H]1C(=O)[C@@]2(C)[C@H]([C@H](OC(=O)c3ccccc3)[C@]3(O)C[C@H](OC(=O)[C@H](O)[C@@H](NC(=O)c4ccccc4)c4ccccc4)C(C)=C1C3(C)C)[C@]1(OC(C)=O)CO[C@@H]1C[C@@H]2O [Paclitaxel],,,,,,,,,,,> 227,84,96,13,~70,53 ± 24,49 ± 35
